Measurements published in ChEMBL document CHEMBL1201862, “PubChem BioAssay data set” (2004).
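Dose response: 5 concentrations. Exposure: 48 h. Format: 96-well plates. Endpoint: linear interpolation; highest concentration if not reached. Here, GI50 denotes the concentration required for 50% inhibition of growth.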 The source made the active and inactive calls. Rule as the data show it: active = GI50 up to about 1.1 µM and inactive = higher.

Assays:
Assay in all cases: growth of human tumour cells (NCI), 48 h
[1] = system: SK-MEL-5
[2] = system: KM12
[3] = system: HCT-15
[4] = system: K562
[5] = system: NCI-H23
[6] = system: TK-10
[7] = system: LOX IMVI
[8] = system: OVCAR-8
[9] = system: MDA-MB-435
[10] = system: SF-268
[11] = system: NCI-H226
[12] = system: RXF 393
[13] = system: CAKI-1
[14] = system: UACC-257
[15] = system: UO-31
[16] = system: SK-MEL-2
[17] = system: Hs-578T
[18] = system: HOP-92
[19] = system: SN12C
[20] = system: IGROV-1

Compound | GI50 [1] | GI50 [2] | GI50 [3] [µM] | GI50 [4] | GI50 [5] | GI50 [6] | GI50 [7] | GI50 [8] | GI50 [9] | GI50 [10] | GI50 [11] | GI50 [12] | GI50 [13] | GI50 [14] | GI50 [15] | GI50 [16] | GI50 [17] | GI50 [18] | GI50 [19] | GI50 [20]
Clc1ccc(-c2nn3c(CCCCCCCCc4nnc5sc(-c6ccc(Cl)cc6)nn45)nnc3s2)cc1 | 13.8 µM (inactive) | 11.9 µM (inactive) | 26.3 | 20 µM (inactive) | 27.1 µM (inactive) | 23.4 µM (inactive) | 7.24 µM (inactive) | 18.7 µM (inactive) | 17 µM (inactive) | 23.2 µM (inactive) | 25.6 µM (inactive) | 14.9 µM (inactive) | 16.3 µM (inactive) | 12.3 µM (inactive) | 12.6 µM (inactive) | 29.8 µM (inactive) | 27.2 µM (inactive) | 31 µM (inactive) | 17.5 µM (inactive) | 22.8 µM (inactive)
COc1ccc(-c2nc3ccc(C)cc3o2)c(OC)c1 | 19.3 µM (inactive) | 19.2 µM (inactive) | 22.5 | 22.1 µM (inactive) | 27.8 µM (inactive) | 27.4 µM (inactive) | 16.6 µM (inactive) | 26.4 µM (inactive) | 21.6 µM (inactive) | 28.6 µM (inactive) | 30 µM (inactive) | 22.5 µM (inactive) | 29.8 µM (inactive) | 17.7 µM (inactive) | 24 µM (inactive) | 24.6 µM (inactive) | 25.8 µM (inactive) | 25.4 µM (inactive) | 26.5 µM (inactive) | 20.8 µM (inactive)
COc1ccccc1Nc1nc(N)nc(N)c1N | 54.1 µM (inactive) | > 100 µM (inactive) | 62.1 | 45.1 µM (inactive) | 66.1 µM (inactive) | > 100 µM (inactive) | 20.8 µM (inactive) | > 100 µM (inactive) | 27.5 µM (inactive) | 64.1 µM (inactive) | > 100 µM (inactive) | > 100 µM (inactive) | 58.7 µM (inactive) | 60.3 µM (inactive) | > 100 µM (inactive) | > 100 µM (inactive) | > 100 µM (inactive) | > 100 µM (inactive) | 17.5 µM (inactive) | 72.6 µM (inactive)
COc1cc(C2SCC(=O)N2c2ccc(Cl)c(Cl)c2)cc(OC)c1OC (stereo not given) | 21.7 µM (inactive) | 12.7 µM (inactive) | 20.6 | 1.28 µM (inactive) | 69.5 µM (inactive) | > 100 µM (inactive) | 17.7 µM (inactive) | 60.5 µM (inactive) | 11.1 µM (inactive) | > 100 µM (inactive) | > 37 µM (inactive) | 18.5 µM (inactive) | 27.5 µM (inactive) | 32.6 µM (inactive) | 18.9 µM (inactive) | 30.2 µM (inactive) | > 100 µM (inactive) | 80.9 µM (inactive) | > 54.5 µM (inactive) | > 82.6 µM (inactive)
C=C1[C@@H](OC(C)=O)/C=C/C2C3C(=O)[C@@](C)(OC(C)=O)[C@H]([C@H](OC(C)=O)[C@]4(O)[C@@H](C)C(=O)O[C@H]4[C@H]1Cl)[C@@]23C (stereo not given in full) | > 100 µM (inactive) | > 100 µM (inactive) | > 100 | > 100 µM (inactive) | > 100 µM (inactive) | > 100 µM (inactive) | > 100 µM (inactive) | > 100 µM (inactive) | > 100 µM (inactive) | > 100 µM (inactive) | > 100 µM (inactive) | > 100 µM (inactive) | > 100 µM (inactive) | > 100 µM (inactive) | > 100 µM (inactive) | > 100 µM (inactive) | > 100 µM (inactive) | > 100 µM (inactive) | > 100 µM (inactive) | > 100 µM (inactive)
COC(=O)C[C@H](CCSC)NC(=O)C[C@H](CCSC)NC(=O)C[C@H](CCSC)NC(=O)OC(C)(C)C | 56.4 µM (inactive) | > 100 µM (inactive) | > 100 | > 100 µM (inactive) | 47.2 µM (inactive) | 19.1 µM (inactive) | > 100 µM (inactive) | 28.7 µM (inactive) | 39.5 µM (inactive) | 20.4 µM (inactive) | 41.7 µM (inactive) | 16.1 µM (inactive) | > 100 µM (inactive) | 68.5 µM (inactive) | > 100 µM (inactive) | 24.2 µM (inactive) | 30.3 µM (inactive) | 16.3 µM (inactive) | 32.8 µM (inactive) | 56.2 µM (inactive)
O=C1SC(SCc2ccccc2)=NC12CC2c1ccccc1 (stereo not given) | 17.8 µM (inactive) | 17.7 µM (inactive) | 20.4 | 19.5 µM (inactive) | 20.1 µM (inactive) | 25.6 µM (inactive) | 18.8 µM (inactive) | 19.4 µM (inactive) | 22.1 µM (inactive) | 27 µM (inactive) | 23.6 µM (inactive) | 18.7 µM (inactive) | 20 µM (inactive) | 16.8 µM (inactive) | 19.5 µM (inactive) | 18.7 µM (inactive) | 24.3 µM (inactive) | 17.1 µM (inactive) | 20 µM (inactive) | 21.4 µM (inactive)
COc1ccc(C[N+](C)(C)N)cc1OC | > 10 µM (inactive) | > 10 µM (inactive) | > 10 | 4.03 µM (inactive) | > 10 µM (inactive) | > 10 µM (inactive) | > 10 µM (inactive) | > 10 µM (inactive) | > 10 µM (inactive) | > 10 µM (inactive) | > 100 µM (inactive) | > 100 µM (inactive) | > 10 µM (inactive) | > 10 µM (inactive) | > 100 µM (inactive) | > 100 µM (inactive) | > 10 µM (inactive) | > 10 µM (inactive) | > 10 µM (inactive) | > 100 µM (inactive)
CN1CCN(CCCCN2c3ccccc3Sc3ccc(N=[N+]=[N-])cc32)CC1 | 2.26 µM (inactive) | 6.22 µM (inactive) | 7.36 | 1.89 µM (inactive) | 17.8 µM (inactive) | 12.7 µM (inactive) | 2.47 µM (inactive) | 13.5 µM (inactive) | 2.07 µM (inactive) | 9.71 µM (inactive) | 14.3 µM (inactive) | 5.16 µM (inactive) | 7.29 µM (inactive) | 2.06 µM (inactive) | 7.57 µM (inactive) | 3.99 µM (inactive) | 7.31 µM (inactive) | 2.75 µM (inactive) | 12.2 µM (inactive) | 7.91 µM (inactive)
